Columns and labels:
[1] = tested on: transferred CD8+ CD45.1+ OT1 T-cells; experiment: Phenotype of adoptively transferred OT1 CD8+ T-cells in blood of B16-OVA tumor-bearing mice; format: in vivo, mouse
Source text: Antibody panel to determine the frequency and differentiation and activation state of adoptively transferred T-cells in the blood (see Example 6): CD8-PE-texas-Red, CD45.1-Pacific blue, CD45.2-FITC, CD127-PE, KLRG1-PE-Cy7, CD62L-APC, CD44-APC-Cy7, and CD27-PerCP-Cy5.5.
Example 5. In vivo tumor model to characterize the phenotype and efficacy of cultured CD8+ T-cells upon adoptive cell transfer. An in vivo tumor model was used to determine the efficacy of in vitro cultured CD8+ T-cells treated with an IDH2 inhibitor in eliminating cancer cells (FIG. 10). B16-OVA melanoma cells (see Example 1) were cultured in DMEM (GIBCO) with 10% FCS and 1% P/S before their subcutaneous injection into the mouse flank. Each mouse received 100′000 cells in a volume of 200 μl of PBS. 6 days after B16-OVA cell injection, tumors were measured, mice were randomized and lymphodepleted by irradiation (5 Gray). 7 days after B16-Ova cell injection, mice were adoptively transferred with activated CD45.1^+ OT-1 splenocytes. The CD45.1^+ OT-1 splenocytes had been cultured in vitro for 7 days as described in Example 2, wherein the IDH2 inhibitor was AG221, collected and purified on a Ficoll gradient to separate dead and live splenocytes. Live splenocytes, almost exclusively consisting of CD8+ T-cells (about 98%), were counted with Trypan blue stain 0.4%. 100′000 live splenocytes were transferred into CD45.2^+ host mice by tail vein injection.
Following the adoptive cell transfer (ACT), mice received a vaccination of CpG (50 μg/mouse) and N4 Ova peptide (10 μg/mouse) diluted in PBS to obtain a total volume of 100 μl/mouse, injected subcutaneously at the tail base to further stimulate the transferred cells. An additional no-ACT control group received only a PBS injection (neither cells, CpG nor peptide). Tumors were measured every 2 days with a digital caliper and the tumor volume was calculated according to the formula: V=π×[d2×D]/6, wherein d is the smallest tumor axis and D is the largest tumor axis.
Example 6. Maintenance of the CD8+ T-cell memory phenotype in vivo. Blood samples were collected at day 14 and day 18 post tumor engraftment (see Example 5). […] Transferred CD8+ T-cells were CD8^+ and CD45.1^+. Among those, MPECs were KLRG1^low and CD127^+, SLECs were KLRG1^high and CD127^−, and TCM were CD44^+ and CD62L^+.

OT1 CD8+ T cells = experiment: Extracellular flux analyses (XF-96 Seahorse) of OT1 CD8+ T cells; format: cell-based, mouse; settings: day 7, compared to DMSO
Procedure: Example 2. In vitro culture of splenocytes comprising CD8+ T-cells. OT1 splenocytes (as described in Example 1) were cultured for 3 days at a concentration of 10^6 cells per mL in RPMI medium (Gibco 61870-01) supplemented with 10% FCS, (Gibco 10270-106), 1% Penicillin/Streptomycin (P/S; Gibco 15070-063), 0.1% 13-mercaptoethanol, 1% HEPES (Gibco 15630-080), 1× Non-essential amino acids (Gibco 11140-035), 1% L-glutamine (Gibco 25030-081), 1 mM Sodium Pyruvate (Gibco 11360-039), 100 U/m1 hIL-2 (Glaxo-IMB) and 1 μg/ml ovalbumin N4 peptide (SIINFEKL). To evaluate the effects of IDH2 inhibition on T-cell differentiation, 5 μM of a small molecule IDH2 inhibitor (AG221 or AGI6780) or a DMSO solvent control was added during this 3-day culture period. At day 3, a fraction of the splenocytes was collected and the remaining cells were cultured for 4 additional days with 100 U/ml hIL-2 and 10 ng/ml hIL-7 (Peprotech 200-07) supplementation after washing out the inhibitors and the ovalbumine N4 peptide (FIG. 1). At day 3 and day 7, the activation and differentiation state of CD8+ T-cells was determined by gene expression analysis, flow cytometry and extracellular metabolic flux analyses (see Example 3).
Real-time analysis of CD8^+ T cell oxygen consumption rate (OCR) was measured with an XF-96 Extracellular Flux Analyzer (Seahorse Bioscience) at day 7 of in vitro culture (FIG. 7). Measurements were performed while successively adding different drugs to the culture without any washing steps in between. Specifically, the measurements were performed under basal conditions, after addition of 1.25 μM oligomycin, a complex V inhibitor that blocks mitochondrial ATP synthase, after addition of 1 μM protonophore FCCP (fluoro-carbonyl cyanide phenylhydrazone) to uncouple ATP synthesis from oxygen consumption by the electron transport chain, after addition of 50 μM etomoxir to inhibit CPT1alpha, and thus fatty acid oxidation, and after addition of 100 nM rotenone and 1 μM antimycin A to inhibit the electron transport chain.
The basal OCR is the OCR measured in the absence of drugs. Addition of oligomycin allows to calculate the ATP-linked respiration by subtracting the oligomycin OCR from basal OCR. FCCP enables the electron transport chain (ETC) to reach its maximal rate, allowing to determine the cellular maximal respiratory capacity. Finally, rotenone and antimycin A inhibit the ETC which indicates the non-mitochondrial respiration. The spare respiratory capacity (SRC) is defined as the difference between basal OCR and maximal OCR obtained after FCCP addition.
In addition, the extracellular acidification rate (ECAR), which is an indicator for […], was measured using the same device under basal conditions. This allowed further calculating the OCR/ECAR ratio as indicator of basal mitochondrial activity.

[2] = day 14, compared to DMSO control

CC(C)(O)CNc1nc(Nc2ccnc(C(F)(F)F)c2)nc(-c2cccc(C(F)(F)F)n2)n1 [AG221, 2-methyl-1-[[4-[6-(trifluoromethyl)pyridin-2-yl]-6-[[2-(trifluoromethyl)pyridin-4-yl]amino]-1,3,5-triazin-2-yl]amino]propan-2-ol]
frequency of transferred T-cells ([1]; day 14 (day 7 post ACT), cells treated in vitro before ACT, versus DMSO): significantly higher
proportion of central memory T cells (TCM) within transferred CD8+ T-cells [1, 2]: significantly higher
proportion of memory precursor effector cells (MPECs) within transferred CD8+ T-cells [1, 2]: significantly higher
proportion of short-lived effector cells (SLECs) within transferred CD8+ T-cells [1, 2]: significantly lower
OCR/ECAR ratio (OT1 CD8+ T cells): unchanged
basal oxygen consumption rate (OCR) (OT1 CD8+ T cells): significantly increased
extracellular acidification rates (ECAR) (OT1 CD8+ T cells): unchanged
maximal respiratory capacity (OT1 CD8+ T cells): significantly increased
spare respiratory capacity (SRC) (OT1 CD8+ T cells): significantly increased

— patent US20220325242A1, “IDH2 INHIBITION FOR PRODUCING T-CELLS AND B-CELLS WITH A MEMORY PHENOTYPE” (Universite de Lausanne, priority 2019, published 2022)
